# From US20090018111A1, “Novel Antimicrobial Medicament” (priority 2004, published 2009)
# Where two headings read alike, the source gives them in different places.
# Legend:
# Test in all cases: Sensitivity test (agar dilution)
# [1] = tested on: S. aureus 209P; type: cell-based, Staphylococcus aureus; details: Staphylococcus aureus, 209P, S. aureus 209P
# Procedure, shortened: (§1)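 Standard Japanese agar dilution method. Drugs alone or combined were serially halved in Mueller Hinton agar, inoculated with overnight (37° C) cultures at about 10^6 CFU/ml. Values are MICs.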
# [2] = tested on: S. aureus MS94088 (hetero-MRSA); type: cell-based, Staphylococcus aureus; details: Staphylococcus aureus, MRSA, S. aureus MS94088 (hetero-MRSA)
# Procedure, shortened: as §1
# [3] = tested on: S. aureus SP-7928 (homo-MRSA); type: cell-based, Staphylococcus aureus; details: Staphylococcus aureus, MRSA, S. aureus SP-7928 (homo-MRSA)
# Procedure, shortened: as §1
# [4] = tested on: M. luteus ATCC9341; type: cell-based, Micrococcus luteus; details: Micrococcus luteus, M. luteus ATCC9341
# Procedure, shortened: as §1
# [5] = tested on: Str. pyogenes Cook; type: cell-based, Streptococcus pyogenes; details: Streptococcus pyogenes, Str. pyogenes Cook
# Procedure, shortened: as §1
# [6] = tested on: E. faecium ATCC19434; type: cell-based, Enterococcus faecium; details: Enterococcus faecium, E. faecium ATCC19434
# Procedure, shortened: as §1
# [7] = tested on: B. subtilis ATCC6633; type: cell-based, Bacillus subtilis; details: Bacillus subtilis, B. subtilis ATCC6633
# Procedure, shortened: as §1
# [8] = tested on: E. coli NIHJ JC-2; type: cell-based, Escherichia coli; details: Escherichia coli, E. coli NIHJ JC-2
# Procedure, shortened: as §1
# [9] = tested on: K. pneumoniae ATCC10031; type: cell-based, Klebsiella pneumoniae; details: Klebsiella pneumoniae, K. pneumoniae ATCC10031
# Procedure, shortened: as §1
# [10] = tested on: P. vulgaris GN7919; type: cell-based, Proteus vulgaris; details: Proteus vulgaris, P. vulgaris GN7919
# Procedure, shortened: as §1
# [11] = tested on: P. vurgalis OX-19; type: cell-based, Proteus vulgaris; details: Proteus vulgaris, P. vurgalis OX-19
# Procedure, shortened: as §1
# [12] = tested on: E. aerogenes ATCC13048; type: cell-based, Enterobacter aerogenes; details: Klebsiella aerogenes, E. aerogenes ATCC13048
# Procedure, shortened: as §1
# [13] = tested on: S. maltophilia IID1275; type: cell-based, Stenotrophomonas maltophilia; details: Stenotrophomonas maltophilia, S. maltophilia IID1275
# Procedure, shortened: as §1
# [14] = Concomitant (PIPC:SM = 1:1), read-out: MIC concomitant
# [15] = drug alone, read-out: MIC alone
smiles,measurement,setting,value
"CCN1CCN(C(=O)N[C@@H](C(=O)N[C@@H]2C(=O)N3[C@@H]2SC(C)(C)[C@@H]3C(=O)O)c2ccccc2)C(=O)C1=O [PIPC, piperacillin]",MIC,[1]; [14],0.004 µg/mL
same,MIC,[1]; [15],0.25 µg/mL
same,MIC,[2]; [14],0.125 µg/mL
same,MIC,[2]; [15],> 32 µg/mL
same,MIC,[3]; [14],1 µg/mL
same,MIC,[3]; [15],> 32 µg/mL
same,MIC,"[4]; ATCC9341, Concomitant (PIPC:SM = 1:1), read-out: MIC concomitant",≤ 0.002 µg/mL
same,MIC,"[4]; ATCC9341, drug alone, read-out: MIC alone",0.031 µg/mL
same,MIC,[5]; [14],≤ 0.002 µg/mL
same,MIC,[5]; [15],0.031 µg/mL
same,MIC,"[6]; ATCC19434, Concomitant (PIPC:SM = 1:1), read-out: MIC concomitant",0.125 µg/mL
same,MIC,"[6]; ATCC19434, drug alone, read-out: MIC alone",8 µg/mL
same,MIC,"[7]; ATCC6633, Concomitant (PIPC:SM = 1:1), read-out: MIC concomitant",≤ 0.002 µg/mL
same,MIC,"[7]; ATCC6633, drug alone, read-out: MIC alone",0.125 µg/mL
same,MIC,"[8]; NIHJJC2, Concomitant (PIPC:SM = 1:1), read-out: MIC concomitant",0.063 µg/mL
same,MIC,"[8]; NIHJJC2, drug alone, read-out: MIC alone",0.25 µg/mL
same,MIC,"[9]; ATCC10031, Concomitant (PIPC:SM = 1:1), read-out: MIC concomitant",0.016 µg/mL
same,MIC,"[9]; ATCC10031, drug alone, read-out: MIC alone",0.25 µg/mL
same,MIC,"[10]; GN7919, Concomitant (PIPC:SM = 1:1), read-out: MIC concomitant",0.5 µg/mL
same,MIC,"[10]; GN7919, drug alone, read-out: MIC alone",> 32 µg/mL
same,MIC,"[11]; OX19, read-out: MIC alone, drug alone",0.008 µg/mL
same,MIC,"[11]; OX19, read-out: MIC concomitant, Concomitant (PIPC:SM = 1:1)",0.008 µg/mL
same,MIC,"[12]; ATCC13048, Concomitant (PIPC:SM = 1:1), read-out: MIC concomitant",8 µg/mL
same,MIC,"[12]; ATCC13048, drug alone, read-out: MIC alone",4 µg/mL
same,MIC,"[13]; IID1275, Concomitant (PIPC:SM = 1:1), read-out: MIC concomitant",> 32 µg/mL
same,MIC,"[13]; IID1275, drug alone, read-out: MIC alone",> 32 µg/mL
